Measurements as given in the NIST ThermoML archive (doi:10.1021/je700699u).

Experiment: cn = amount concentration of the nth substance listed, in mol/dm3
Details: 101 kPa, Liquid

NCCCCCC(=O)[O-].[K+] [potassium Salt of 6-aminohexanoic acid] + O
Details	mass density, 298.15 K [kg/m3]	mass density, 303.15 K [kg/m3]	mass density, 313.15 K [kg/m3]	mass density, 323.15 K [kg/m3]	mass density, 333.15 K [kg/m3]	viscosity, 298.15 K [mPa·s]	viscosity, 303.15 K [mPa·s]	viscosity, 313.15 K [mPa·s]	viscosity, 323.15 K [mPa·s]	viscosity, 333.15 K [mPa·s]
c1 = 0.497	1024	1022	1018	1014	1009	1.191	1.058	0.854	0.706	0.599
c1 = 1.002	1049	1048	1044	1038	1034	1.608	1.418	1.126	0.913	0.762
c1 = 1.429	1072	1070	1067	1061	1057	2.152	1.882	1.497	1.199	0.987
c1 = 1.982	1098	1095	1089	1084	1078	3.091	2.669	2.035	1.608	1.307
c1 = 2.458	1119	1117	1111	1105	1098	4.445	3.796	2.85	2.211	1.768
c1 = 2.942	1141	1139	1132	1126	1118	6.601	5.573	4.112	3.145	2.458

CSCCC(N)C(=O)[O-].[K+] (stereo not drawn) [potassium salt of DL-methionine] + O
Details	mass density, 298.15 K [kg/m3]	mass density, 303.15 K [kg/m3]	mass density, 313.15 K [kg/m3]	mass density, 323.15 K [kg/m3]	mass density, 333.15 K [kg/m3]	viscosity, 298.15 K [mPa·s]	viscosity, 303.15 K [mPa·s]	viscosity, 313.15 K [mPa·s]	viscosity, 323.15 K [mPa·s]	viscosity, 333.15 K [mPa·s]
c1 = 0.252	1016	1014	1010	1006	1003	0.987	0.884	0.722	0.608	0.519
c1 = 0.503	1033	1032	1027	1023	1020	1.109	0.987	0.806	0.675	0.575
c1 = 0.732	1051	1049	1044	1039	1037	1.263	1.125	0.909	0.754	0.64
c1 = 0.994	1067	1065	1060	1055	1053	1.425	1.264	1.019	0.84	0.708
c1 = 1.252	1084	1083	1077	1072	1069	1.654	1.478	1.161	0.952	0.799
c1 = 1.479	1100	1098	1093	1087	1085	1.883	1.657	1.316	1.071	0.893

CNCC(=O)[O-].[K+] [potassium Salt of sarcosine] + O
Details	mass density, 298.15 K [kg/m3]	mass density, 303.15 K [kg/m3]	mass density, 313.15 K [kg/m3]	mass density, 323.15 K [kg/m3]	mass density, 333.15 K [kg/m3]	viscosity, 298.15 K [mPa·s]	viscosity, 303.15 K [mPa·s]	viscosity, 313.15 K [mPa·s]	viscosity, 323.15 K [mPa·s]	viscosity, 333.15 K [mPa·s]
c1 = 0.51	1024	1023	1019	1015	1010	1.018	0.913	0.748	0.627	0.538
c1 = 1.01	1051	1049	1045	1041	1036	–	–	–	–	–
c1 = 1.019	–	–	–	–	–	1.185	1.06	0.876	0.759	0.614
c1 = 1.534	1077	1074	1070	1065	1060	1.408	1.252	1.005	0.833	0.703
c1 = 2.019	1103	1100	1096	1091	1085	1.663	1.466	1.18	0.968	0.811
c1 = 2.445	1124	1121	1117	1111	1106	1.959	1.707	1.356	1.098	0.919
c1 = 2.987	1150	1148	1143	1138	1132	2.493	2.185	1.721	1.395	1.115
